How the values were obtained:
[1] = target: G4 DNA (Pu22); test: Isothermal titration calorimetry (ITC), reverse titration; parameters: species or system human; settings: G4 DNA titrated to ligand; 19 °C; one-site binding model
Procedure: Unfortunately, this was only possible using reverse titration, adding G4 DNA to the ligand, and a direct comparison to the MST binding affinities, which were performed by titrating the ligand to the G4, can thus not be performed. […] The reason why 5 is more efficient in stabilizing G4 DNA could instead be linked to the entropic penalty (−TΔS), which is less for 5 (1.85 kcal/mol) compared to 27 (3.2 kcal/mol).
ITC experiments were performed using a MicroCal ITC200 instrument (GE Healthcare). A buffer containing 10 mM potassium phosphate and 100 mM KCl of pH 7.4 was prepared. The sample cell was filled with a 20 μM ligand, and the syringe with 120 μM prefolded G4 DNA. […] The data was analyzed in MICROCAL PEAQ-ITC analysis software using a one-site binding mode. […]
The following settings were applied: temperature 19 °C, reference power 7 μcal/sec, initial delay 300 sec, stirring speed 1000 RPM, spacing 120 sec, filter 5 sec, first injection 0.5 μL for 1 sec then 2 μL for 4 sec for the subsequent injections, and high-feedback mode. The data was analyzed in MICROCAL PEAQ-ITC analysis software using a one-site binding mode.
Figure S20. Binding curves with their associated ΔG-, ΔH-, and -TΔS-values for compounds 5 and 27 for G4 DNA (Pu22) measured by ITC with a one-site binding model. […]
structure. […] Excitation sculpting was used in the 1D 1H experiments, and 256 scans were recorded. […]

[2] = Caco-2 intrinsic permeability; assay type: in vitro ADME; settings: human, read-out: Cell-permeability (Papp)
Description: We next performed further profiling of the most promising compound 5 and its matched pair neutral analogue 27, by measuring intrinsic permeability in a Caco-2 assay (Table S3). […] This was further confirmed using Immortalized Human Total Liver Cell Population (IHTLCP) and HeLa cells (Figures S22 and S23). […] This observed cytotoxicity of 5 can be linked to its potent G4 binding and stabilization, as it can potentially act as a pan-G4 stabilizer and affect various G4-regulated cellular processes, such as telomere maintenance, gene transcription, and DNA replication.
Physicochemical properties
The Physicochemical profiling (LogD, Solubility, Caco-2 cell permeability) was performed as previously
described.8 Cell viability was performed as described below.
Table S2. Pharmacokinetic Properties
Compound Structure logD, Solubility, Rat hepsa Human mics b

| Kd [1] | Papp [2] | Structure (SMILES) |
| --- | --- | --- |
| 880 nM | < 0.13 ×10⁻⁶ cm/s | Cc1cc(C)c2nc(Nc3nc(C)cc(NCCCN(C)C)n3)nc(C)c2c1 [Compound 5, N4-(3-(Dimethylamino)propyl)-6-methyl-N2-(4,6,8-trimethylquinazolin-2-yl)pyrimidine-2,4-diamine] |
| 1040 nM | 70 ×10⁻⁶ cm/s | Cc1cc(C)c2nc(Nc3nc(C)cc(C)n3)nc(C)c2c1 [Compound 27, N-(4,6-Dimethylpyrimidin-2-yl)-4,6,8-trimethylquinazolin-2-amine] |

From publication PMC10860144, “Exploring the Dispersion and Electrostatic Components in Arene–Arene Interactions between Ligands and G4 DNA to Develop G4-Ligands” (Journal of Medicinal Chemistry, 2024)
